Experimental data as given in patent US9353110B2, “Fused heterocyclic compound” (Sumitomo Chemical Company, Limited, priority 2011, dated 2016).

Assays:
Type in all cases: in vivo
Musca domestica = assay: Test Example 8: filter paper with sucrose bait against Musca domestica; conditions: 500 ppm test solution, 0.7 ml on filter paper, 10 female imagoes, after 24 hours
Method: Each test solution was prepared by diluting a formulation containing any of the present compounds 1, 3-5, 8, 15-16, 19-20, 23, 27, 29, 37, 40, 44, 48, 60-61, 64, 72, 74, 518, 523 and 528 as obtained in Formulation Example 5, with water so as to give 500 ppm of the concentration of the active ingredient.
(§1) A filter paper having a diameter of 5.5 cm was spread on the bottom of a polyethylene cup having a diameter of 5.5 cm and each test solution (0.7 ml) was added dropwise onto the filter paper. As a bait sucrose (30 mg) was uniformly placed on the filter paper. Into the polyethylene cup, 10 female imagoes of Musca domestica were released and the cup was sealed with a lid. After 24 hours, the number of surviving Musca domestica was examined and the death rate of the pest was calculated.

[1] = test system: Haemaphysalis longicornis; assay: Test Example 11: coated screw tube against nymphal ticks Haemaphysalis longicornis; conditions: 2 mg compound coated on inner wall of screw tube, 5 non-blood-sucking nymphal ticks, after 2 days
Method: Each 2 mg of the present compounds 1, 5, 8, 15-16, 19, 23, 25-27, 30, 37, 40, 49, 61, 63, 99 and 516 was put into a screw tube (Maruemu No. 5; 27×55 mm). Acetone (0.2 ml) was added thereto and sealed with a cap. After dissolving the compound in acetone, the screw tube was rotated and inverted to uniformity coat the solution onto the whole inner wall of the tube. After removing the cap, the solution was air-dried for about 2 hours. Then, non-blood-sucking nymphal ticks, Haemaphysalis longicornis (5 ticks/group) were released into the tube, and the tube was sealed with the cap. After 2 days, the number of dead tick was counted, and a death rate was calculated according to the following equation: Death rate (%)=(Number of dead tick/Number of tested tick)×100

Blattalla germanica = assay: Test Example 9: filter paper with sucrose bait against Blattalla germanica; conditions: 500 ppm test solution, 0.7 ml on filter paper, 2 male imagoes, after 6 days
Method: Each test solution was prepared by diluting a formulation containing any of the present compounds 4-5, 19-20, 28-29, 40, 44, 48, 60, 71-74, 89, 523 and 528 as obtained in Formulation Example 5, with water so as to give 500 ppm of the concentration of the active ingredient.
as §1, with “2 male” for “10 female”, “Blattalla germanica” for “Musca domestica”, “6 days,” for “24 hours,”

In the case of `CCSc1cccnc1-c1nc2cc(C(F)(F)F)cnc2n1C` [compound 1], the death rate (Musca domestica) is reported as 100% and the death rate [1] is reported as 100%.

Work on `CCS(=O)(=O)c1cccnc1-c1nc2cc(C(F)(F)F)cnc2n1C` [compound 3] yielded a death rate (Musca domestica) of 100%.

`CCSc1cc(C(F)(F)F)cnc1-c1nc2cc(C(F)(F)F)cnc2n1C` [compound 4] showed a death rate (Blattalla germanica) of 100%.

In the case of `CCS(=O)(=O)c1cc(C(F)(F)F)cnc1-c1nc2cc(C(F)(F)F)cnc2n1C` [compound 5], the death rate (Musca domestica) is reported as 100%, the death rate (Blattalla germanica) is reported as 100% and the death rate [1] is reported as 100%.

In the case of `CCS(=O)(=O)c1cccnc1-c1nc2cc(C(F)(F)C(F)(F)F)cnc2n1C` [compound 8], the death rate (Musca domestica) is reported as 100% and the death rate [1] is reported as 100%.

In the case of `CCS(=O)(=O)c1cccnc1-c1nc2cc(SC(F)(F)F)cnc2n1C` [compound 15], the death rate (Musca domestica) is reported as 100% and the death rate [1] is reported as 100%.

In the case of `CCS(=O)(=O)c1cccnc1-c1nc2cc(S(=O)(=O)C(F)(F)F)cnc2n1C` [compound 16], the death rate (Musca domestica) is reported as 100% and the death rate [1] is reported as 100%.

For `CCS(=O)(=O)c1cc(C(F)(F)F)cnc1-c1nc2cc(C(F)(F)C(F)(F)F)cnc2n1C` [compound 19], the death rate (Musca domestica) was 100%, the death rate (Blattalla germanica) was 100% and the death rate [1] was 100%.

With `CCS(=O)(=O)c1cccnc1-c1nc2cc([S+]([O-])C(F)(F)F)cnc2n1C` (stereo not shown) [compound 20] the death rate (Musca domestica) was 100% and the death rate (Blattalla germanica) was 100%.

In the case of `CCS(=O)(=O)c1cc(C(F)(F)F)cnc1-c1nc2cc(S(=O)(=O)C(F)(F)F)cnc2n1C` [compound 25], the death rate [1] is reported as 100%.

Molecule `CCS(=O)(=O)c1cccnc1-c1nc2cc(C(F)(F)C(F)(F)F)ccc2n1C` [compound 27] has a death rate (Musca domestica) of 100% and a death rate [1] of 100%.

Work on `CCSc1cc(C(F)(F)F)cnc1-c1nc2cc(SC(F)(F)F)cnc2n1C` [compound 28] yielded a death rate (Blattalla germanica) of 100%.

Work on `CCSc1cccnc1-c1nc2cc(C(F)(F)F)ccc2n1C` [compound 30] yielded a death rate [1] of 100%.

`CCS(=O)(=O)c1cc(C(F)(F)F)cnc1-c1nc2cc(C(F)(F)C(F)(F)F)ccc2n1C` [compound 40] was tested, and the death rate (Musca domestica) was 100%, the death rate (Blattalla germanica) was 100% and the death rate [1] was 100%.

In the case of `CCS(=O)(=O)c1cc(C(F)(F)F)cnc1-c1nc2cc(SC(F)(F)F)cnc2n1C` [compound 44], the death rate (Musca domestica) is reported as 100% and the death rate (Blattalla germanica) is reported as 100%.

`CCS(=O)(=O)c1cc(C(F)(F)F)cnc1-c1nc2cc(C(F)(F)F)c[n+]([O-])c2n1C` [compound 48] was tested, and the death rate (Musca domestica) was 100% and the death rate (Blattalla germanica) was 100%.

With `CCSc1cccnc1-c1nc2cc(OC(F)(F)F)ccc2n1C` [compound 49] the death rate [1] was 100%.

With `CCS(=O)(=O)c1cc(C(F)(F)F)cnc1-c1nc2cc([S+]([O-])C(F)(F)F)cnc2n1C` (stereo not shown) [compound 60] the death rate (Musca domestica) was 100% and the death rate (Blattalla germanica) was 100%.

Work on `CCSc1cccnc1-c1nc2cc(SC(F)(F)F)ccc2n1C` [compound 61] yielded a death rate (Musca domestica) of 100% and a death rate [1] of 100%.

`CCS(=O)(=O)c1cccnc1-c1nc2cc(SC(F)(F)F)ccc2n1C` [compound 63] showed a death rate [1] of 100%.

For `CCS(=O)(=O)c1cccnc1-c1nc2cc(S(=O)(=O)C(F)(F)F)ccc2n1C` [compound 64], the death rate (Musca domestica) was 100%.

With `CCSc1cc(C(F)(F)C(F)(F)F)cnc1-c1nc2cc(C(F)(F)F)cnc2n1C` [compound 71] the death rate (Blattalla germanica) was 100%.

`CCS(=O)(=O)c1cc(C(F)(F)C(F)(F)F)cnc1-c1nc2cc(C(F)(F)F)cnc2n1C` [compound 72] gave a death rate (Musca domestica) of 100%.

In the case of `CCS(=O)(=O)c1cc(C(F)(F)C(F)(F)F)cnc1-c1nc2cc(C(F)(F)C(F)(F)F)cnc2n1C` [compound 74], the death rate (Musca domestica) is reported as 100% and the death rate (Blattalla germanica) is reported as 100%.

In the case of `CCS(=O)(=O)c1cc(C(F)(F)F)cnc1-c1nc2cc(C(F)(F)F)c(Cl)nc2n1C` [compound 89], the death rate (Blattalla germanica) is reported as 100%.

Molecule `CCS(=O)(=O)c1cc(C(F)(F)F)cnc1-c1nc2cc(C(F)(F)F)c(N(C)C)nc2n1C` [compound 99] has a death rate [1] of 100%.

For `CCSc1cccnc1-c1nc2cc(C(F)(F)F)cc(Sc3ccccc3)c2n1C` [compound 516], the death rate [1] was 100%.

With `CCS(=O)(=O)c1cccnc1-c1nc2cc(C(F)(F)F)cc(S(=O)(=O)CC(F)(F)F)c2n1C` [compound 518] the death rate (Musca domestica) was 100%.

Work on `CCS(=O)(=O)c1cc(C(F)(F)F)cnc1-c1nc2cc(C(F)(F)C(F)(F)F)c[n+]([O-])c2n1C` [compound 523] yielded a death rate (Musca domestica) of 100% and a death rate (Blattalla germanica) of 100%.

`CCS(=O)(=O)c1cc(C(OC)(OC)OC)cnc1-c1nc2cc(C(F)(F)C(F)(F)F)cnc2n1C` [compound 528] was tested, and the death rate (Musca domestica) was 100% and the death rate (Blattalla germanica) was 100%.
